This note sets out measurements from US10722501B2 (BAYER AKTIENGESELLSCHAFT, priority 2016, dated 2020).

SMILES strings stand for the structures.

This test has as its target T1, recombinant full-length human prolyl endopeptidase (PREP) (Homo sapiens, UniProt P48147).
T1 construct: To recombinant full-length human prolyl endopeptidase (PREP, R&D-Systems, 4308-SE); purchased R&D-Systems 4308-SE
T1 sequence (P48147 1-710): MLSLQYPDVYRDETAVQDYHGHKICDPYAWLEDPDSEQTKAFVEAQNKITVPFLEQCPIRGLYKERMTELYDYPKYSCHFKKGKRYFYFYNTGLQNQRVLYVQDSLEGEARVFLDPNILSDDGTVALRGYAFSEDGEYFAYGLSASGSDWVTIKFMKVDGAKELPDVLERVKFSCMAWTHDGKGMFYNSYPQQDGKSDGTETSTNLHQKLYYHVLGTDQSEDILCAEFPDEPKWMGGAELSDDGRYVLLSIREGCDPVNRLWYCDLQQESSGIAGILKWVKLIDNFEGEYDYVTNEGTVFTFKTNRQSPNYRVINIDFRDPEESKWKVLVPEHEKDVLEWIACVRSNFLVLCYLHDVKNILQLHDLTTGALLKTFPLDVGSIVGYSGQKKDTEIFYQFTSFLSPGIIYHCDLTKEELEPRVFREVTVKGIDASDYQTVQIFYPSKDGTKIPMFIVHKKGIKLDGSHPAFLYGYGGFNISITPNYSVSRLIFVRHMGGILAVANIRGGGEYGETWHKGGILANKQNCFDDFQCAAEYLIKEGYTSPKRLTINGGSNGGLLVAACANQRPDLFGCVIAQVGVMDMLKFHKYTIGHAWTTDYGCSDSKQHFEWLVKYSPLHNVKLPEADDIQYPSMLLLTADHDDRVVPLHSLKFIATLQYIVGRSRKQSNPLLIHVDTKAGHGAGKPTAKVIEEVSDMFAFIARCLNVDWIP
The test can be described thus: Biochemical human prolyl endopeptidase (PREP) assay with fluorescently labelled substrate. The note with it: substrate Z-Gly-Pro-AMC 50 μM, 32° C., 60 min; some as mean values from multiple independent determinations. In short, it runs like this:
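0.4 nM (final, example) recombinant PREP in pH 7.5 Tris buffer with EDTA, GSH, BSA and Brij-35; compounds at 1 nM to 30 μM. Reaction started with 50 μM Z-Gly-Pro-AMC and followed by fluorescence (ex 360/em 465 nm) at 32° C for 60 min. IC50 interpolated from percent activity based on initial slopes.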
As a reminder, the IC50 is the concentration needed to halve the response being measured. Regarding `Cn1nc(Cn2nc3n(c2=O)[C@H](C(=O)N2C[C@@H](F)[C@@H](F)C2)CCC3)c2cccnc21` [Example 414, (5S)-5-{[(3R,4S)-3,4-Difluoropyrrolidin-1-yl]carbonyl}-2-[(1-methyl-1H-pyrazolo[3,4-b]pyridin-3-yl)methyl]-5,6,7,8-tetrahydro[1,2,4]triazolo[4,3-a]pyridin-3(2H)-one], the IC50 is 0.79 nM.
For `O=C([C@@H]1CCCc2nn(Cc3nnc(C(F)(F)F)o3)c(=O)n21)N1CC(F)C1` [Example 542, (5S)-5-[(3-Fluoroazetidin-1-yl)carbonyl]-2-{[5-(trifluoromethyl)-1,3,4-oxadiazol-2-yl]methyl}-5,6,7,8-tetrahydro[1,2,4]triazolo[4,3-a]pyridin-3(2H)-one], the IC50 was 94 nM.
Under `Cc1ccc(Cn2nc3n(c2=O)C(C(=O)N2CCC(C)CC2)CCC3)cc1` (racemic) [Example 160, (5RS)-2-(4-Methylbenzyl)-5-[(4-methylpiperidin-1-yl)carbonyl]-5,6,7,8-tetrahydro[1,2,4]triazolo[4,3-a]pyridin-3(2H)-one] stands 32 nM; under `Cc1cc(Cn2nc3n(c2=O)C(C(=O)N2CC[C@H](F)C2)CCC3)on1` (mixture of isomers) [Example 416, (5RS)-5-{[(3S)-3-Fluoropyrrolidin-1-yl]carbonyl}-2-[(3-methyl-1,2-oxazol-5-yl)methyl]-5,6,7,8-tetrahydro[1,2,4]triazolo[4,3-a]pyridin-3(2H)-one], 3.4 nM.
As for `O=C(C1CCc2nn(Cc3ccnc(C(F)(F)F)c3F)c(=O)n21)N1CC(F)C1` (racemic) [Example 182, (5RS)-5-[(3-Fluoroazetidin-1-yl)carbonyl]-2-{[3-fluoro-2-(trifluoromethyl)pyridin-4-yl]methyl}-2,5,6,7-tetrahydro-3H-pyrrolo[2,1-c][1,2,4]triazol-3-one], the 50% inhibitory concentration (IC50) was 37.5 nM.
As for `CC1CCC(C(=O)N2CC[C@H](F)C2)n2c1nn(Cc1ccc(C(F)(F)F)nc1)c2=O` (single isomer, unassigned) [Example 222], the IC50 is 1.1 nM.
With `O=C([C@@H]1CCCc2nn(Cc3cncc(Cl)c3)c(=O)n21)N1CC[C@H](F)C1` [Example 438, (5S)-2-[(5-Chloropyridin-3-yl)methyl]-5-{[(3S)-3-fluoropyrrolidin-1-yl]carbonyl}-5,6,7,8-tetrahydro[1,2,4]triazolo[4,3-a]pyridin-3(2H)-one], the IC50 amounted to 1.68 nM.
On to `O=C([C@@H]1CCCc2nn(Cc3ccc(C(F)(F)F)nc3)c(=O)n21)N1CCC2CC21` (single isomer, unassigned) [Example 200], for which the IC50 was 455 nM.
For the compound `O=C(C1CCc2nn(Cc3ccnc(C(F)(F)F)c3F)c(=O)n21)N1C[C@@H](F)[C@@H](F)C1` (mixture of isomers) [Example 175, (5RS)-5-{[(3R,4S)-3,4-Difluoropyrrolidin-1-yl]carbonyl}-2-{[3-fluoro-2-(trifluoromethyl)pyridin-4-yl]methyl}-2,5,6,7-tetrahydro-3H-pyrrolo[2,1-c][1,2,4]triazol-3-one], the IC50 amounted to 7 nM.
Consider `O=C([C@@H]1CCCc2nn(Cc3ccc(C(F)(F)F)nc3)c(=O)n21)N1CC[C@H](F)C1` [Example 427, (5S)-5-{[(3S)-3-Fluoropyrrolidin-1-yl]carbonyl}-2-{[6-(trifluoromethyl)pyridin-3-yl]methyl}-5,6,7,8-tetrahydro[1,2,4]triazolo[4,3-a]pyridin-3(2H)-one], for which the half-inhibitory concentration (IC50) was 1.1 nM.
Consider `O=C([C@@H]1CCCc2nn(CC3(c4cccc(Cl)n4)CC3)c(=O)n21)N1CC(F)C1` [Example 348, (5S)-2-{[1-(6-Chloropyridin-2-yl)cyclopropyl]methyl}-5-[(3-fluoroazetidin-1-yl)carbonyl]-5,6,7,8-tetrahydro[1,2,4]triazolo[4,3-a]pyridin-3(2H)-one], for which the half-maximal inhibitory concentration (IC50) came to 3.8 nM.
As for `O=C([C@@H]1CCCc2nn(CCc3ncc(C(F)(F)F)cc3Cl)c(=O)n21)N1CC[C@H](F)C1` [Example 342, (5S)-2-{2-[3-Chloro-5-(trifluoromethyl)pyridin-2-yl]ethyl}-5-{[(3S)-3-fluoropyrrolidin-1-yl]carbonyl}-5,6,7,8-tetrahydro[1,2,4]triazolo[4,3-a]pyridin-3(2H)-one], the IC50 is 1.75 nM.
On to `O=C(C1CCCc2nn(Cc3ccc4c(c3)CCC4)c(=O)n21)N1CCCC1` (racemic) [Example 11, (5RS)-2-(2,3-Dihydro-1H-inden-5-ylmethyl)-5-(pyrrolidin-1-ylcarbonyl)-5,6,7,8-tetrahydro[1,2,4]triazolo[4,3-a]pyridin-3(2H)-one], for which the IC50 came to 0.7 nM.
Regarding `O=C(C1C(C(F)(F)F)CCc2nn(Cc3ncc(Cl)cc3F)c(=O)n21)N1C[C@@H](F)[C@@H](F)C1` (single isomer, unassigned) [Example 292], the IC50 was 37 nM.
For the compound `Cc1nc(C(F)(F)F)c(Cn2nc3n(c2=O)C(C(=O)N2CCCC2)CCC3)s1` (racemic) [Example 77, (5RS)-2-{[2-Methyl-4-(trifluoromethyl)-1,3-thiazol-5-yl]methyl}-5-(pyrrolidin-1-ylcarbonyl)-5,6,7,8-tetrahydro[1,2,4]triazolo[4,3-a]pyridin-3(2H)-one], the 50% inhibitory concentration (IC50) is 4.8 nM.
Take `CC1CCC(C(=O)N2CC[C@H](F)C2)n2c1nn(Cc1ccc(F)c(Cl)c1)c2=O` (mixture of isomers) [Example 320, (5RS,8RS)-2-(3-Chloro-4-fluorobenzyl)-5-{[(3S)-3-fluoropyrrolidin-1-yl]carbonyl}-8-methyl-5,6,7,8-tetrahydro[1,2,4]triazolo[4,3-a]pyridin-3(2H)-one]: the 50% inhibitory concentration (IC50) was determined as 0.69 nM.
Regarding `O=C([C@@H]1CCCc2nn(/C=C/c3ccc(F)cc3)c(=O)n21)N1CCCC1` [Example 204, (5S)-2-[(E)-2-(4-Fluorophenyl)vinyl]-5-(pyrrolidin-1-ylcarbonyl)-5,6,7,8-tetrahydro[1,2,4]triazolo[4,3-a]pyridin-3(2H)-one], the concentration for half-maximal inhibition (IC50) was 320 nM.
Take `O=C([C@@H]1CCCc2nn(CC3(c4ccc(C(F)(F)F)cc4)CC3)c(=O)n21)N1CC[C@H](F)C1` [Example 356, (5S)-5-{[(3S)-3-Fluoropyrrolidin-1-yl]carbonyl}-2-({1-[4-(trifluoromethyl)phenyl]cyclopropyl}methyl)-5,6,7,8-tetrahydro[1,2,4]triazolo[4,3-a]pyridin-3(2H)-one]: the IC50 was 0.3 nM.
Turning to `O=C([C@@H]1CCCc2nn(Cc3ncc(Cl)cc3F)c(=O)n21)N1CCSC1` [Example 507, (5S)-2-[(5-Chloro-3-fluoropyridin-2-yl)methyl]-5-(1,3-thiazolidin-3-ylcarbonyl)-5,6,7,8-tetrahydro[1,2,4]triazolo[4,3-a]pyridin-3(2H)-one], the half-maximal inhibitory concentration (IC50) came out at 0.94 nM.
For `O=C([C@@H]1CCCc2nn(Cc3nccc(C(F)(F)F)c3Cl)c(=O)n21)N1CCC(F)(F)C1` [Example 387, (5S)-2-{[3-Chloro-4-(trifluoromethyl)pyridin-2-yl]methyl}-5-[(3,3-difluoropyrrolidin-1-yl)carbonyl]-5,6,7,8-tetrahydro[1,2,4]triazolo[4,3-a]pyridin-3(2H)-one], the half-maximal inhibitory concentration (IC50) stood at 3.4 nM.
Regarding `COc1ccc(Cn2nc3n(c2=O)[C@H](C(=O)N2C[C@@H](F)[C@@H](F)C2)CCC3)cn1` [Example 431, (5S)-5-{[(3R,4S)-3,4-Difluoropyrrolidin-1-yl]carbonyl}-2-[(6-methoxypyridin-3-yl)methyl]-5,6,7,8-tetrahydro[1,2,4]triazolo[4,3-a]pyridin-3(2H)-one], the IC50 turned out to be 0.995 nM.
With `Cc1ccc(C2(Cn3nc4n(c3=O)[C@H](C(=O)N3CC(O)C3)CCC4)CC2)cc1` [Example 354, (5S)-5-[(3-Hydroxyazetidin-1-yl)carbonyl]-2-{[1-(4-methylphenyl)cyclopropyl]methyl}-5,6,7,8-tetrahydro[1,2,4]triazolo[4,3-a]pyridin-3(2H)-one], the IC50 amounted to 19 nM.
`O=C([C@@H]1CCCc2nn(Cc3ncc(Cl)cc3F)c(=O)n21)N1CC(F)(F)C1` [Example 409, (5S)-2-[(5-Chloro-3-fluoropyridin-2-yl)methyl]-5-[(3,3-difluoroazetidin-1-yl)carbonyl]-5,6,7,8-tetrahydro[1,2,4]triazolo[4,3-a]pyridin-3(2H)-one]: the IC50 came out at 14 nM.
Under `O=C([C@@H]1CCCc2nn(Cc3cccc(C(F)(F)F)n3)c(=O)n21)N1CC[C@H](F)C1` [Example 370, (5S)-5-{[(3S)-3-Fluoropyrrolidin-1-yl]carbonyl}-2-{[6-(trifluoromethyl)pyridin-2-yl]methyl}-5,6,7,8-tetrahydro[1,2,4]triazolo[4,3-a]pyridin-3(2H)-one] stands 1 nM; under `O=C([C@@H]1CCCc2nn(Cc3ncc(F)cc3Cl)c(=O)n21)N1CC[C@H](F)C1` [Example 560, (5S)-2-[(3-Chloro-5-fluoropyridin-2-yl)methyl]-5-{[(3S)-3-fluoropyrrolidin-1-yl]carbonyl}-5,6,7,8-tetrahydro[1,2,4]triazolo[4,3-a]pyridin-3(2H)-one], 0.43 nM.
